Test results published in the supplement of paper PMC10307832.

Key:
Test in all cases: relative viability (nuclei count vs DMSO), 5 days (fraction); higher = more cells survive
Sorafenib + Alpelisib = compound: CNC(=O)c1cc(Oc2ccc(NC(=O)Nc3ccc(Cl)c(C(F)(F)F)c3)cc2)ccn1 [Sorafenib] + Cc1nc(NC(=O)N2CCC[C@H]2C(N)=O)sc1-c1ccnc(C(C)(C)C(F)(F)F)c1 [Alpelisib] (partner 2 µM)
How it was run: (§1)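 Relative viability divides the nuclei count in treated wells by that in vehicle wells. Lung cancer cell lines were seeded in 1536-well plates, dosed by pin tool the next day, and fixed and stained after 5 days in one step with final 0.05% Triton X-100, 1% formaldehyde and 1 ug/ml Hoechst. Dosing was a single drug or a fixed anchor-drug dose plus five library-drug doses (not always all listed) in √10 steps, and values are medians of duplicate plates imaged at 4×.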

Sorafenib + Pemetrexed = compound: CNC(=O)c1cc(Oc2ccc(NC(=O)Nc3ccc(Cl)c(C(F)(F)F)c3)cc2)ccn1 [Sorafenib] + Nc1nc2[nH]cc(CCc3ccc(C(=O)N[C@@H](CCC(=O)O)C(=O)O)cc3)c2c(=O)[nH]1 [Pemetrexed] (partner 0.2 µM)
How it was run: as §1

Sorafenib + Bortezomib = compound: CNC(=O)c1cc(Oc2ccc(NC(=O)Nc3ccc(Cl)c(C(F)(F)F)c3)cc2)ccn1 [Sorafenib] + CC(C)C[C@H](NC(=O)[C@H](Cc1ccccc1)NC(=O)c1cnccn1)B(O)O [Bortezomib] (partner 0.002 µM)
How it was run: as §1

Sorafenib + Phenformin = compound: CNC(=O)c1cc(Oc2ccc(NC(=O)Nc3ccc(Cl)c(C(F)(F)F)c3)cc2)ccn1 [Sorafenib] + N=C(N)NC(=N)NCCc1ccccc1 [Phenformin] (partner 250 µM)
How it was run: as §1

Sorafenib + Palbociclib = compound: CNC(=O)c1cc(Oc2ccc(NC(=O)Nc3ccc(Cl)c(C(F)(F)F)c3)cc2)ccn1 [Sorafenib] + CC(=O)c1c(C)c2cnc(Nc3ccc(N4CCNCC4)cn3)nc2n(C2CCCC2)c1=O [Palbociclib] (partner 0.5 µM)
How it was run: as §1

Cell Line	relative viability (Sorafenib + Alpelisib; first compound 0.08 µM)	relative viability (Sorafenib + Alpelisib; first compound 0.253 µM)	relative viability (Sorafenib + Alpelisib; first compound 2.53 µM)	relative viability (Sorafenib + Alpelisib; first compound 8 µM)	relative viability (Sorafenib + Pemetrexed; first compound 0.08 µM)	relative viability (Sorafenib + Pemetrexed; first compound 0.253 µM)	relative viability (Sorafenib + Pemetrexed; first compound 2.53 µM)	relative viability (Sorafenib + Pemetrexed; first compound 8 µM)	relative viability (Sorafenib + Bortezomib; first compound 0.08 µM)	relative viability (Sorafenib + Bortezomib; first compound 0.253 µM)	relative viability (Sorafenib + Bortezomib; first compound 2.53 µM)	relative viability (Sorafenib + Bortezomib; first compound 8 µM)	relative viability (Sorafenib + Phenformin; first compound 0.08 µM)	relative viability (Sorafenib + Phenformin; first compound 0.253 µM)	relative viability (Sorafenib + Phenformin; first compound 2.53 µM)	relative viability (Sorafenib + Phenformin; first compound 8 µM)	relative viability (Sorafenib + Palbociclib; first compound 0.08 µM)	relative viability (Sorafenib + Palbociclib; first compound 0.253 µM)	relative viability (Sorafenib + Palbociclib; first compound 2.53 µM)	relative viability (Sorafenib + Palbociclib; first compound 8 µM)
RERF-LC-KJ	1.03	0.989	0.951	0.906	0.485	0.458	0.524	0.417	1.12	0.992	1.17	0.992	0.437	0.435	0.463	0.394	1.05	0.961	1.03	0.759
SK-LU-1	0.987		0.868	0.242	1.06	0.871	0.897	0.388	1.16	1.07	1.11	0.735	0.641	0.484	0.487	0.195	0.474	0.372	0.362	0.326
SW 1573	0.879	0.757	0.805	0.578	0.911		0.719	0.374	1.22	1.05	0.989	0.286	0.446	0.403	0.388	0.0803	0.39	0.363	0.417	0.09
UMC-11	0.999	0.959	0.968	0.529	0.869	0.788	0.772	0.474	0.609	0.627	0.702	0.231	0.316	0.301	0.24	0.155	0.284	0.355	0.334	0.188
